Legend:
[1] = molecular target: Type-2 angiotensin II receptor (Bos taurus, UniProt G5E6F7)
[2] = molecular target: Platelet-activating factor receptor (Oryctolagus cuniculus)
[3] = molecular target: Muscarinic acetylcholine receptor M2 (Rattus norvegicus, UniProt P10980)
[4] = molecular target: 5-hydroxytryptamine receptor 1B (Rattus norvegicus, UniProt P28564)
[5] = molecular target: Gamma-aminobutyric acid receptor subunit alpha-1 (Rattus norvegicus, UniProt P62813)
Phosphodiesterase 3a = Phosphodiesterase 3a (Cavia porcellus, UniProt C7DXW3)
[6] = molecular target: Dual specificity calcium/calmodulin-dependent 3',5'-cyclic nucleotide phosphodiesterase 1A (Bos taurus, UniProt P14100)
B2 bradykinin receptor = B2 bradykinin receptor (Homo sapiens, UniProt P30411)
[7] = molecular target: Type-1 angiotensin II receptor A (Rattus norvegicus, UniProt P25095)
Glucocorticoid receptor = Glucocorticoid receptor (Mus musculus, UniProt P06537)
[8] = molecular target: Angiotensin-converting enzyme (Homo sapiens, UniProt P12821)
[9] = molecular target: Endothelin-1 receptor (Rattus norvegicus) (UniProt P26684)
Histamine H1 receptor = Histamine H1 receptor (Cavia porcellus, UniProt P31389)
[10] = molecular target: PDGF receptor (Mus musculus)
Substance-P receptor = Substance-P receptor (Homo sapiens, UniProt P25103)
[11] = molecular target: Tumor necrosis factor receptor (Homo sapiens)
[12] = molecular target: Insulin receptor (Rattus norvegicus) (UniProt P15127)
[13] = molecular target: Prostaglandin G/H synthase 1 (Rattus norvegicus, UniProt Q63921)
[14] = molecular target: Interleukin-1 receptor (Mus musculus)
Mu-type opioid receptor = Mu-type opioid receptor (Rattus norvegicus, UniProt P33535)
Adenosine receptor A2a = Adenosine receptor A2a (Rattus norvegicus, UniProt P30543)
[15] = molecular target: Gamma-aminobutyric acid (GABA) B receptor 1 (Rattus norvegicus, UniProt Q6MFX8)
D(1A) dopamine receptor = D(1A) dopamine receptor (Rattus norvegicus, UniProt P18901)
[16] = molecular target: Corticotropin-releasing factor receptor 1 (Rattus norvegicus, UniProt P35353)
[17] = molecular target: Nitric oxide synthase, endothelial (Homo sapiens, UniProt P29474)
[18] = molecular target: Sigma non-opioid intracellular receptor 1 (Rattus norvegicus, UniProt Q9R0C9)
[19] = molecular target: Glutamate receptor ionotropic, NMDA 1 (Rattus norvegicus, UniProt P35439)
[20] = molecular target: Neuronal acetylcholine receptor subunit alpha-9 (Rattus norvegicus, UniProt P43144)
[21] = molecular target: L-type calcium channel (Rattus norvegicus)
D(2) dopamine receptor = D(2) dopamine receptor (Rattus norvegicus, UniProt P61169)
[22] = molecular target: Phosphodiesterase 5A (Homo sapiens)
[23] = molecular target: cAMP-specific 3',5'-cyclic phosphodiesterase 4D (Homo sapiens, UniProt Q08499)
Adenosine receptor A1 = Adenosine receptor A1 (Rattus norvegicus, UniProt P25099)
[24] = molecular target: Beta-1 adrenergic receptor (Rattus norvegicus, UniProt P18090)
[25] = molecular target: Cholecystokinin receptor type A (Homo sapiens) (UniProt P32238)
Caspase-3 = Caspase-3 (Homo sapiens, UniProt P42574)
[26] = molecular target: 5-hydroxytryptamine receptor 2A (Rattus norvegicus, UniProt P14842)
[27] = molecular target: Prostaglandin G/H synthase 2 (Ovis aries, UniProt P79208)
[28] = molecular target: Vasoactive intestinal polypeptide receptor 1 (Homo sapiens, UniProt P32241)
Chain of Vasoactive intestinal polypeptide receptor 1 (P32241 whole entry): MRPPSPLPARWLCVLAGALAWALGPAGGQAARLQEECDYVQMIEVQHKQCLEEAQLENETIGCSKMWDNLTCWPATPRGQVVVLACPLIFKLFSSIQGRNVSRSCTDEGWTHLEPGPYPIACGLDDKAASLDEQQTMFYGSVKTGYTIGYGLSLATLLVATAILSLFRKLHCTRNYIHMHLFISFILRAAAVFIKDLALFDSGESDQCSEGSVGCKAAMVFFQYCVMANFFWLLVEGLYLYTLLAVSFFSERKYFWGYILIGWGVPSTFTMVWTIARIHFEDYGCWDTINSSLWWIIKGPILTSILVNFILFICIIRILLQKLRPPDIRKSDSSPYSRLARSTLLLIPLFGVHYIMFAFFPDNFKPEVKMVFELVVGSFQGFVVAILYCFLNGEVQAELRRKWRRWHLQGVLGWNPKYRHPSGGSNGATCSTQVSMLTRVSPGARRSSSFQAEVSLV

Chain of D(2) dopamine receptor (P61169 whole entry): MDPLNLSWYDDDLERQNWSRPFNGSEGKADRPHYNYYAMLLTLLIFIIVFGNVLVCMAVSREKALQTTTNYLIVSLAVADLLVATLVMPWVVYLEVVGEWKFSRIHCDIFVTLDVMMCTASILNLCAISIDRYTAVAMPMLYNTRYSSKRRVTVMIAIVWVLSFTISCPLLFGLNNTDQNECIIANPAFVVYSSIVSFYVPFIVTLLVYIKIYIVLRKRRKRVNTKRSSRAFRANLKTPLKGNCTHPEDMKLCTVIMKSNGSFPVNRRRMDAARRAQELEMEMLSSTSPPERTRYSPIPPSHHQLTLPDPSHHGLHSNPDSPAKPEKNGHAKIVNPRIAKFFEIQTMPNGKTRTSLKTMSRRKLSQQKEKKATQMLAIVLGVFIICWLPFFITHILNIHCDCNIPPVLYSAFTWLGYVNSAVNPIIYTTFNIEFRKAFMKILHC
Chain of Insulin receptor (Rattus norvegicus) (P15127 whole entry, looked up): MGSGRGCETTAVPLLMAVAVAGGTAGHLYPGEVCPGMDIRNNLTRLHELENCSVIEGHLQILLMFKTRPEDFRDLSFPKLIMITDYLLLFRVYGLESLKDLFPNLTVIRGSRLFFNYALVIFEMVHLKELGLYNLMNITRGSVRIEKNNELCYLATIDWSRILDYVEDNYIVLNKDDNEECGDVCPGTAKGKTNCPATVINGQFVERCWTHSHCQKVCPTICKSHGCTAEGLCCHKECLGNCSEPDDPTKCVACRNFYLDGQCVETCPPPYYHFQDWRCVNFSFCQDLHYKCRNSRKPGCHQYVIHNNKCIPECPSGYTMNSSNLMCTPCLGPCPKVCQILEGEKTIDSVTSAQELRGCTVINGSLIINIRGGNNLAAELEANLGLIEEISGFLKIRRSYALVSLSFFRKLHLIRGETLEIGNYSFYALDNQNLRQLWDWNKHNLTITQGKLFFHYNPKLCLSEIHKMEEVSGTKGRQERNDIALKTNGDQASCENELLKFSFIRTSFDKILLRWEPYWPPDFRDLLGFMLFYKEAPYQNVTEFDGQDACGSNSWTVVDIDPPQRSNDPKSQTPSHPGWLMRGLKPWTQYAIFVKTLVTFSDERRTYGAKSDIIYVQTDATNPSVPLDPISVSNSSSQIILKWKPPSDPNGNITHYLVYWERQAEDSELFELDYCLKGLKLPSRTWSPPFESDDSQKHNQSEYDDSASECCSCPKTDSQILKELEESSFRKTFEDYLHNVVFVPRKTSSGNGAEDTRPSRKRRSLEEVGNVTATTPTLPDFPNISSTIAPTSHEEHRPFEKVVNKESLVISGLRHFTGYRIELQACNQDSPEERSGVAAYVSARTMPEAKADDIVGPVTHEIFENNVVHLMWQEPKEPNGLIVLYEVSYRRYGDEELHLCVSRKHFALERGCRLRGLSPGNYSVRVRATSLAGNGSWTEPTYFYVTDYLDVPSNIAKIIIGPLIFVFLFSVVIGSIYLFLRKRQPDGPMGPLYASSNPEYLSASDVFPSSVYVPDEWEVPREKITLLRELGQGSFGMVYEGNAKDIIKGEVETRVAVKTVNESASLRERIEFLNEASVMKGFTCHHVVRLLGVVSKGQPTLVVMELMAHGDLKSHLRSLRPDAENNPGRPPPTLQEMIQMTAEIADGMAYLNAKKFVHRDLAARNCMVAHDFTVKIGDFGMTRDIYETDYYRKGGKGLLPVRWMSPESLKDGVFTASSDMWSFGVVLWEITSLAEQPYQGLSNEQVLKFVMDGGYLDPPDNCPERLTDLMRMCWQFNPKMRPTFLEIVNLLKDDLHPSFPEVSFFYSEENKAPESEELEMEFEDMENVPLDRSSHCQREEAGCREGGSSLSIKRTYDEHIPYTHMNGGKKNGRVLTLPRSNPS
Chain of Adenosine receptor A1 (P25099 whole entry): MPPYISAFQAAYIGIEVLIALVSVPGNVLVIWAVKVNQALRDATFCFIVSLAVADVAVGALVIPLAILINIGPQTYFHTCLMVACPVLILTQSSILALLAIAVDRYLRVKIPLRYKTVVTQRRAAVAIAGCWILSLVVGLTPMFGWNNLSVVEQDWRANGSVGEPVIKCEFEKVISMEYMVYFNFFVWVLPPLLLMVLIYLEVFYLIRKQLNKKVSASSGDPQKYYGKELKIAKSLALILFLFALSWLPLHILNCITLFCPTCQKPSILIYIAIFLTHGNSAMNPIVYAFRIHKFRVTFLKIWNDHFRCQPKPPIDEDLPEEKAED
Chain of Glucocorticoid receptor (P06537 as listed by the source): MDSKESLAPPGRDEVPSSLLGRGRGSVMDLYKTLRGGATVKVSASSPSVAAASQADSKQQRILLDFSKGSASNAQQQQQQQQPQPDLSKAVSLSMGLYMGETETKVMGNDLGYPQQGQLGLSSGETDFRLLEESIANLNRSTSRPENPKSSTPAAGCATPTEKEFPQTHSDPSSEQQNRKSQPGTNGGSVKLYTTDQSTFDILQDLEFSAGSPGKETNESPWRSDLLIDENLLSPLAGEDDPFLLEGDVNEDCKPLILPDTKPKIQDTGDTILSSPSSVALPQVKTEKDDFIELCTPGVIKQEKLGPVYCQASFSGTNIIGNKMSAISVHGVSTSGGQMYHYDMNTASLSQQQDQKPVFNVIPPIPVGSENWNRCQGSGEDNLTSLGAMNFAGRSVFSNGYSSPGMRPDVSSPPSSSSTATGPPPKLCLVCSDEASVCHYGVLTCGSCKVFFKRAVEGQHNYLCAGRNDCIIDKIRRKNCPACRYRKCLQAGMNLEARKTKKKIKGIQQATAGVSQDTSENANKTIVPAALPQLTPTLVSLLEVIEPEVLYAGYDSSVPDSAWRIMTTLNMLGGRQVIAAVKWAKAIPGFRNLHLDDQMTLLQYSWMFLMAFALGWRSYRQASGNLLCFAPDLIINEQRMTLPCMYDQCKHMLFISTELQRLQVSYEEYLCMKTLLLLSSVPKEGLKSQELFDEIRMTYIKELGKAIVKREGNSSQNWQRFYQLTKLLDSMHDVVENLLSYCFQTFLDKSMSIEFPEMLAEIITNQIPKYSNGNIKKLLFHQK
Chain of Prostaglandin G/H synthase 2 (P79208 whole entry): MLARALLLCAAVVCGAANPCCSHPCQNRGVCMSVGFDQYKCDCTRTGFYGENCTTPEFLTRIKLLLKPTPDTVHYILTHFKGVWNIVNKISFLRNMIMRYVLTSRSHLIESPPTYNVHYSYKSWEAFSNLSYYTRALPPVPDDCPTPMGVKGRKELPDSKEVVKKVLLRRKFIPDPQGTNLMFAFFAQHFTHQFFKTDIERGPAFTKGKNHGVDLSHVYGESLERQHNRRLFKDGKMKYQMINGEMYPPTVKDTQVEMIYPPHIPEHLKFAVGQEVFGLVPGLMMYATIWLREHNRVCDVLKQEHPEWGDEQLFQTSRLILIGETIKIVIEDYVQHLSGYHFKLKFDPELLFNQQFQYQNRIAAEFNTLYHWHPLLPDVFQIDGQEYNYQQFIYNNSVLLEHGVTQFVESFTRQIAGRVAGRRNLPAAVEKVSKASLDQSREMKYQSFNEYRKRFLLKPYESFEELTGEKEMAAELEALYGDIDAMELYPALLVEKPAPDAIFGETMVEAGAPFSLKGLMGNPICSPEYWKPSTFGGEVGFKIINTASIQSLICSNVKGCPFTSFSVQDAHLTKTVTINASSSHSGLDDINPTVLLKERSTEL
Chain of Type-2 angiotensin II receptor (G5E6F7 whole entry): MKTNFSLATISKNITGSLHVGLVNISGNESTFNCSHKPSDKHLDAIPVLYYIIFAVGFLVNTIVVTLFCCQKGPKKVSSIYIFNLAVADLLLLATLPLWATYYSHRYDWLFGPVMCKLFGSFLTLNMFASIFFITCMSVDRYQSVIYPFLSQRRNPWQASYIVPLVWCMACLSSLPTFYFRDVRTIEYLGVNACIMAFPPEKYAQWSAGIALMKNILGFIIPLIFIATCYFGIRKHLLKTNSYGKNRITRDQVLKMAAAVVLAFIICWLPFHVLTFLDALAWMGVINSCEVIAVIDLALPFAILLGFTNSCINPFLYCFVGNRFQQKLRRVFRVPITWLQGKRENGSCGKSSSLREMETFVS
Chain of B2 bradykinin receptor (P30411 whole entry): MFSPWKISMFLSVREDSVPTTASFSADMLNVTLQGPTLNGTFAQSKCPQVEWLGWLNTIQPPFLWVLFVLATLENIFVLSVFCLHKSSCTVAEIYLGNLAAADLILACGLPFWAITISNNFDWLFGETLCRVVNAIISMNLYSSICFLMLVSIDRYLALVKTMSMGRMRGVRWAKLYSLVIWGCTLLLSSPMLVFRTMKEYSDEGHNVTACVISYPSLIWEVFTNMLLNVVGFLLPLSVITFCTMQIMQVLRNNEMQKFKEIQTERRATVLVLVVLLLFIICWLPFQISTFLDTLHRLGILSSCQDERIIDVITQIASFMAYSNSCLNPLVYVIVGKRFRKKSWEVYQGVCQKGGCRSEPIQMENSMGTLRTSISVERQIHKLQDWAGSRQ
Chain of Phosphodiesterase 3a (C7DXW3 whole entry): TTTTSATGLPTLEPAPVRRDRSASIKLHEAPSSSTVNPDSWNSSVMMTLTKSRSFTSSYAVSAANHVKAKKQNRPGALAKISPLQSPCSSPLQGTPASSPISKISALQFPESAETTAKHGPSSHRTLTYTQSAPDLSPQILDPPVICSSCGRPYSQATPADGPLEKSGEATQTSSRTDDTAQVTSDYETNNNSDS

Ki [1]: > 10 µM | Ki [2]: > 10 µM | Ki [3]: > 10 µM | Ki [4]: > 10 µM | Ki [5]: > 10 µM | Ki (Phosphodiesterase 3a): > 10 µM | Ki [6]: > 10 µM | Ki (B2 bradykinin receptor): > 10 µM | Ki [7]: > 10 µM | Ki (Glucocorticoid receptor): > 10 µM | Ki [8]: > 10 µM | Ki [9]: > 10 µM | Ki (Histamine H1 receptor): > 10 µM | Ki [10]: > 10 µM | Ki (Substance-P receptor): > 10 µM | Ki [12]: > 10 µM | Ki [13]: > 10 µM | Ki [14]: > 10 µM | Ki (Mu-type opioid receptor): > 10 µM | Ki (Adenosine receptor A2a): > 10 µM | Ki [15]: > 10 µM | Ki (D(1A) dopamine receptor): > 10 µM | Ki [16]: > 10 µM | Ki [17]: > 10 µM | Ki [18]: > 10 µM | Ki [19]: > 10 µM | Ki [20]: > 10 µM | Ki [21]: > 10 µM | Ki (D(2) dopamine receptor): > 10 µM | Ki [22]: > 10 µM | Ki [23]: > 10 µM | Ki (Adenosine receptor A1): > 10 µM | Ki [24]: > 10 µM | Ki [25]: > 10 µM | Ki (Caspase-3): > 10 µM | Ki [26]: > 10 µM | Ki [27]: > 10 µM | Ki [28]: > 10 µM
Structure (SMILES): O/N=C/Nc1ccc(N2CCOCC2)c(Cl)c1 [N'-(3-Chloro-4-morpholinophenyl)-N-hydroxyformamidine]
Ki [11]: > 10 µM

From BindingDB's records for doi:10.1124/jpet.105.083964 (Taisho Pharmaceutical, 2005)
